≈ marks a conversion by molar mass, not a printed value.
Tested on: S. aureus registered under number DSM799
Test: Minimum inhibitory concentration (MIC), solution culture in 96-well plates followed by drop culture on TSB agar
Assay type: cell-based, Staphylococcus aureus
Protocol: The aim of the test is to compare the efficacy of an extract according to Example 1 or Example 2 and an extract of the Aster genus obtained from the root system (Without the Invention). The aim of the test is to identify the minimum inhibitory concentration (MIC) on a strain of S. aureus registered under number DSM799. The minimum inhibitory concentration (MIC) was determined in vitro using S. aureus solution culture in 96-well plates. The initial concentration of S. aureus was 1.25*10^5 CFU/ml. After 48 h incubation in the presence of a series of dilutions of the extract, a 20 μl drop was taken and placed on a TSB agar plate. The diameter of the “drop culture” is about 1.5 cm. Agar plate cultures were then incubated at 37° C. for 14 hours. The positive control corresponds to the maximum growth of a bacterium, that is, when it is fully confluent, meaning that bacterial colonies stick together and none are visible. Different extracts according to the invention and not according to the invention at different concentrations are thus compared. When no colonies, or separate individual colonies, are visible, then the bacteria have been inhibited by the extract. The extract concentration is then defined as MIC. […] The definition of MIC is as follows: Arbitrary units of bacterial growth were determined on agar culture plates (drop method). […]

For `O=C(N[C@H](CO)[C@H](O)c1ccc([N+](=O)[O-])cc1)C(Cl)Cl` [Chloramphenicol], the MIC (Staphylococcus aureus, 48 h incubation with extract dilutions, drop on TSB agar, 14 h at 37° C.) was 50 µg/mL (≈ 155 µM) and the Number of colonies (agar drop culture at the MIC) was 0.

— patent US20260061016A1, “Extrait aqueux des parties aériennes d'une plante du genre Aster et ses utilisations” (TAUDERMA, priority 2022, published 2026)
